Measurements as given in PubChem BioAssay AID1259407 (Chemical Carcinogenesis Research Information System (CCRIS), 2018).
Calls of active or inactive are those of the source. No rule for the calls is given here.

Tested on: CCRIS mutagenicity, Ames/micronucleus/aberration tests
Experiment: CCRIS mutagenicity studies

Question: What does the source list for CN(C)N=O?
Answer: mutagenic call (Test System: CHINESE HAMSTER V-79, Strain/Indicator: V-79/OUABAIN, Metabolic Activation: RAT, HEPATOCYTES, BUTYLATED HYDROXYANISOLE, Method: STANDARD PLATE): active; positive; mutagenic call (Test System: CHINESE HAMSTER V-79, Strain/Indicator: V-79/OUABAIN, Metabolic Activation: RAT, HEPATOCYTES, Method: STANDARD PLATE): active; positive; mutagenic call (Test System: CHO/HGPRT, Strain/Indicator: CHO-K1-BH4, Metabolic Activation: MOUSE, IN VIVO, Method: HOST-MEDIATED): active; positive; mutagenic call (Test System: E. COLI, Strain/Indicator: WP2 (HCR), Metabolic Activation: RAT, LIVER, MICROSOMES, KANECHLOR 500, Method: PREINCUBATION): inactive; negative; mutagenic call (Test System: E. COLI, Strain/Indicator: WP2, Metabolic Activation: NONE, Method: STANDARD PLATE): active; positive; mutagenic call (Test System: E. COLI, Strain/Indicator: WP2, Metabolic Activation: RAT, LIVER, S-9, AROCLOR 1254, Method: STANDARD PLATE): active; positive; mutagenic call (Test System: E. COLI, Strain/Indicator: WP2 UVRA, Metabolic Activation: HAMSTER, LIVER, S-9, AROCLOR 1254, Method: PREINCUBATION): inactive; negative; mutagenic call (Test System: E. COLI, Strain/Indicator: WP2 UVRA, Metabolic Activation: HAMSTER, LIVER, S-9, Method: PREINCUBATION): inactive; negative; mutagenic call (Test System: E. COLI, Strain/Indicator: WP2 UVRA, Metabolic Activation: MOUSE, LIVER, S-9, AROCLOR 1254, Method: PREINCUBATION): inactive; negative; mutagenic call (Test System: E. COLI, Strain/Indicator: WP2 UVRA, Metabolic Activation: MOUSE, LIVER, S-9, Method: PREINCUBATION): inactive; negative; mutagenic call (Test System: E. COLI, Strain/Indicator: WP2 UVRA, Metabolic Activation: NONE, Method: PREINCUBATION): inactive; negative; mutagenic call (Test System: E. COLI, Strain/Indicator: WP2 UVRA, Metabolic Activation: NONE, Method: STANDARD PLATE): active; positive; mutagenic call (Test System: E. COLI, Strain/Indicator: WP2 UVRA, Metabolic Activation: RAT, LIVER, S-9, AROCLOR 1254, Method: PREINCUBATION): inactive; negative; mutagenic call (Test System: E. COLI, Strain/Indicator: WP2 UVRA, Metabolic Activation: RAT, LIVER, S-9, AROCLOR 1254, Method: STANDARD PLATE): active; positive; mutagenic call (Test System: E. COLI, Strain/Indicator: WP2 UVRA, Metabolic Activation: RAT, LIVER, S-9, Method: PREINCUBATION): inactive; negative; mutagenic call (Test System: MOUSE LYMPHOMA, Strain/Indicator: L5178Y (TK+/TK-), Metabolic Activation: RAT, LIVER, S-9, AROCLOR 1254, Method: SUSPENSION/PLATE): active; positive; mutagenic call (Test System: MOUSE LYMPHOMA, Strain/Indicator: L5178Y (TK+/TK-), Metabolic Activation: RAT, LIVER, S-9, Method: SUSPENSION/PLATE): active; positive; mutagenic call (Test System: UDS HUMAN CELLS, Strain/Indicator: THY INCORP (NON-S-PHASE), Metabolic Activation: NONE, Method: AUTORADIOGRAPHY): active; positive; mutagenic call (Test System: UDS HUMAN CELLS, Strain/Indicator: THY INCORP (NON-S-PHASE), Metabolic Activation: RAT, LIVER, S-9, Method: AUTORADIOGRAPHY): active; positive; mutagenic call (Test System: UDS HUMAN FIBROBLASTS, Strain/Indicator: THY INCORP (NON-S-PHASE), Metabolic Activation: NONE, Method: AUTORADIOGRAPHY): active; positive; mutagenic call (Test System: UDS HUMAN FIBROBLASTS, Strain/Indicator: THY INCORP (NON-S-PHASE), Metabolic Activation: RAT, LIVER, S-9, Method: LIQUID SCINTILLATION COUNTING): active; positive; mutagenic call (Test System: UDS MONKEY HEPATOCYTES, Strain/Indicator: THY INCORP, Metabolic Activation: AROCLOR 1254, Method: AUTORADIOGRAPHY): active; positive; mutagenic call (Test System: UDS MONKEY HEPATOCYTES, Strain/Indicator: THY INCORP, Metabolic Activation: NONE, Method: AUTORADIOGRAPHY): active; positive; mutagenic call (Test System: UDS MOUSE HEPATOCYTES, Metabolic Activation: NONE, Method: IN VIVO-IN VITRO): active; positive; mutagenic call (Test System: UDS RAT HEPATOCYTES, Strain/Indicator: BROMODEOXYURIDINE INCORP, Metabolic Activation: NONE, Method: FLOW CYTOMETRIC ANALYSIS): active; positive; mutagenic call (Test System: UDS RAT HEPATOCYTES, Strain/Indicator: THY INCORP, Metabolic Activation: NONE, Method: AUTORADIOGRAPHY): active; positive; mutagenic call (Test System: UDS RAT HEPATOCYTES, Strain/Indicator: THY INCORP, Metabolic Activation: NONE, Method: LIQUID SCINTILLATION COUNTING): active; positive; mutagenic call (Test System: UDS RODENT HEPATOCYTES, Strain/Indicator: THY INCORP (NON-S-PHASE), Method: AUTORADIOGRAPHY): active; positive; mutagenic call (Test System: UDS RODENT HEPATOCYTES, Strain/Indicator: THY INCORP (NON-S-PHASE), Method: LIQUID SCINTILLATION COUNTING): active; positive; mutagenic call (Test System: UDS, Strain/Indicator: HEPG2/THYMIDINE INCORPORATION, Metabolic Activation: NONE, Method: AUTORADIOGRAPHY): active; positive
